Laboratory results reported in PubChem BioAssay AID248 (DTP/NCI, 2004).
Where “and” joins values, the source holds several entries; their conditions need not be identical. Equal entries are not always repeated. Toxic doses and inconclusive results are not listed. No stated cut-off is given here; in the data, active means T/C of 150% or more; inactive means T/C below 125%.

Tested on: L1210 leukemia ip in BDF1 mice, survival T/C
Test: NCI In Vivo Anticancer Drug Screen. Data for tumor model L1210 Leukemia (intraperitoneal) in B6D2F1 (BDF1) mice
Details: endpoint: mean survival time, higher = longer survival
In short: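 Tumor was transplanted into mice, which were then dosed with test compound or vehicle alone. Survival was recorded for each group, and the treated figure was expressed relative to the control figure.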

[1] = dose: 100.0 mg/kg/injection, schedule: Q01DX009 (ip), vehicle: Klucel (hydroxypropylcellulose) (HPC)
[2] = dose: 100.0 mg/kg/injection, schedule: Q04DX003 (ip), vehicle: saline
[3] = dose: 200.0 mg/kg/injection, schedule: Q01DX009 (ip), vehicle: Klucel (hydroxypropylcellulose) (HPC)
[4] = dose: 200.0 mg/kg/injection, schedule: Q04DX003 (ip), vehicle: saline
[5] = dose: 400.0 mg/kg/injection, schedule: Q01DX009 (ip), vehicle: Klucel (hydroxypropylcellulose) (HPC)
[6] = dose: 400.0 mg/kg/injection, schedule: Q04DX003 (ip), vehicle: saline
[7] = dose: 100.0 mg/kg/injection, schedule: Q01DX001 (ip), vehicle: saline
[8] = dose: 200.0 mg/kg/injection, schedule: Q01DX001 (ip), vehicle: saline
[9] = dose: 400.0 mg/kg/injection, schedule: Q01DX001 (ip), vehicle: saline
[10] = dose: 100.0 mg/kg/injection, schedule: Q04DX002 (ip), vehicle: saline with Tween-80
[11] = dose: 200.0 mg/kg/injection, schedule: Q04DX002 (ip), vehicle: saline with Tween-80
[12] = dose: 400.0 mg/kg/injection, schedule: Q04DX002 (ip), vehicle: saline with Tween-80
[13] = dose: 25.0 mg/kg/injection, schedule: Q04DX002 (ip), vehicle: Klucel (hydroxypropylcellulose) (HPC)
[14] = dose: 50.0 mg/kg/injection, schedule: Q04DX002 (ip), vehicle: Klucel (hydroxypropylcellulose) (HPC)
[15] = dose: 100.0 mg/kg/injection, schedule: Q04DX002 (ip), vehicle: Klucel (hydroxypropylcellulose) (HPC)
[16] = dose: 200.0 mg/kg/injection, schedule: Q04DX002 (ip), vehicle: Klucel (hydroxypropylcellulose) (HPC)
[17] = dose: 100.0 mg/kg/injection, schedule: Q04DX003 (ip), vehicle: Klucel (hydroxypropylcellulose) (HPC)
[18] = dose: 200.0 mg/kg/injection, schedule: Q04DX003 (ip), vehicle: Klucel (hydroxypropylcellulose) (HPC)
[19] = dose: 400.0 mg/kg/injection, schedule: Q04DX003 (ip), vehicle: Klucel (hydroxypropylcellulose) (HPC)

Measured: T/C

O=C(O)c1cc2ccccc2oc1=O
inactive: dose: 10.0 mg/kg/injection, schedule: Q01DX009 (ip), vehicle: Klucel (hydroxypropylcellulose) (HPC) 101 % of control | dose: 100.0 mg/kg/injection, schedule: Q01DX001 (ip), vehicle: Klucel (hydroxypropylcellulose) (HPC) 95 % of control | dose: 200.0 mg/kg/injection, schedule: Q01DX001 (ip), vehicle: Klucel (hydroxypropylcellulose) (HPC) 97 % of control | dose: 400.0 mg/kg/injection, schedule: Q01DX001 (ip), vehicle: Klucel (hydroxypropylcellulose) (HPC) 98 % of control

COc1ccc(N=NN(C(C)=O)c2ccccc2)cc1
inactive: [1] 111 % of control | [2] 102 % of control | [3] 110 % of control | [4] 111 % of control | [5] 96 % of control | [6] 123 % of control

NCCCC(=O)O
inactive: [7] 99 % of control | dose: 100.0 mg/kg/injection, schedule: Q01DX009 (ip), vehicle: saline 100 % of control | [2] 103 % of control | [8] 105 % of control | dose: 200.0 mg/kg/injection, schedule: Q01DX009 (ip), vehicle: saline 90 % of control | [4] 98 % of control | [9] 101 % of control | dose: 400.0 mg/kg/injection, schedule: Q01DX009 (ip), vehicle: saline 94 % of control | [6] 101 % of control

C=CCNC(=S)Nc1ccc(OC(=O)Nc2ccc(Cl)c(Cl)c2)cc1
inactive: [10] 102 % of control | [11] 97 % of control | [12] 105 % of control

O=[N+]([O-])c1ccc(O)c([N+](=O)[O-])c1
inactive: dose: 3.35 mg/kg/injection, schedule: Q01DX Z (ip), vehicle: carboxymethylcellulose (CMC) 94 % of control | dose: 10.32 mg/kg/injection, schedule: Q01DX Z (ip), vehicle: carboxymethylcellulose (CMC) 95 % of control | dose: 13.4 mg/kg/injection, schedule: Q01DX Z (ip), vehicle: carboxymethylcellulose (CMC) 98 % of control | dose: 17.86 mg/kg/injection, schedule: Q01DX Z (ip), vehicle: carboxymethylcellulose (CMC) 94 % of control | dose: 26.8 mg/kg/injection, schedule: Q01DX Z (ip), vehicle: carboxymethylcellulose (CMC) 88 % of control | [7] 94 % of control

Cc1cc([N+](=O)[O-])c(N/N=C/c2ccccc2Cl)c([N+](=O)[O-])c1
inactive: [1] 101 % of control | [3] 95 % of control | [5] 95 % of control

COc1cc(/C=N/N)cc(OC)c1OC
inactive: [13] 117 % of control | [14] 117 % of control | [15] 98 % of control and 109 % of control

CC(=O)OCCCC/C(=C/c1cc2ccccc2c2ccccc12)[N+](=O)[O-]
inactive: dose: 100.0 mg/kg/injection, schedule: Q01DX009 (ip), vehicle: carboxymethylcellulose (CMC) 100 % of control | dose: 266.0 mg/kg/injection, schedule: Q01DX009 (ip), vehicle: carboxymethylcellulose (CMC) 104 % of control | dose: 400.0 mg/kg/injection, schedule: Q01DX009 (ip), vehicle: carboxymethylcellulose (CMC) 104 % of control | dose: 600.0 mg/kg/injection, schedule: Q01DX009 (ip), vehicle: carboxymethylcellulose (CMC) 100 % of control

CCCC(O)c1ccc(OC)c(OC)c1 (configuration not stated)
inactive: [15] 97 % of control | [16] 102 % of control

O=C(NCCCCC(NC(=O)OCc1ccccc1)C(=O)NCCCCCCNCCCCCCNC(=O)C(CCCCNC(=O)OCc1ccccc1)NC(=O)OCc1ccccc1)OCc1ccccc1 (configuration not stated)
inactive: [7] 94 % of control | [8] 92 % of control | [9] 96 % of control

OCCSc1ccc2ccccc2c1
inactive: [10] 94 % of control | [11] 90 % of control | [12] 103 % of control

CCOC(=O)C(=O)CC(=O)/C=C/c1ccccc1
inactive: dose: 100.0 mg/kg/injection, schedule: Q01DX009 (ip), vehicle: saline with Tween-80 96 % of control | [17] 101 % of control | dose: 200.0 mg/kg/injection, schedule: Q01DX009 (ip), vehicle: saline with Tween-80 101 % of control | [18] 98 % of control | dose: 400.0 mg/kg/injection, schedule: Q01DX009 (ip), vehicle: saline with Tween-80 98 % of control | [19] 101 % of control

O=C(O)c1ccc(NCO)cc1
inactive: dose: 100.0 mg/kg/injection, schedule: Q04DX003 (ip), vehicle: acetone 94 % of control | dose: 200.0 mg/kg/injection, schedule: Q04DX003 (ip), vehicle: acetone 102 % of control | dose: 400.0 mg/kg/injection, schedule: Q04DX003 (ip), vehicle: acetone 108 % of control

CCCCCCCC(=O)N(CCN(N=O)C(=O)CCCCCCC)N=O
inactive: [7] 95 % of control | [9] 90 % of control

CCc1ccccn1
inactive: [7] 100 % of control | [8] 102 % of control | [9] 95 % of control

COc1ccc(OC(=O)Nc2ccc(Cl)c(Cl)c2)cc1
inactive: [1] 102 % of control | [17] 95 % of control | [3] 106 % of control | [18] 95 % of control | [5] 95 % of control | [19] 102 % of control

Cc1cn(CC(=O)c2c[nH]c3ccccc23)c(=O)[nH]c1=O
inactive: [10] 101 % of control | [11] 101 % of control | [12] 93 % of control

C/C=C1\CN(C(=O)C(NC(=O)C(N)C(O)C(O)COC(N)=O)C2OC(n3cc(CO)c(=O)[nH]c3=O)C(O)C2O)C1C(=O)O (configuration not stated) (tested in a mixture with another compound)
inactive: [7] 95 % of control | [8] 106 % of control | [9] 105 % of control

O=P(O)(CP(=O)(c1ccccc1)c1ccccc1)c1ccccc1
inactive: [15] 94 % of control | [16] 94 % of control

C1SCSCS1
inactive: [15] 104 % of control | [16] 96 % of control | dose: 400.0 mg/kg/injection, schedule: Q04DX002 (ip), vehicle: Klucel (hydroxypropylcellulose) (HPC) 93 % of control

Cc1ccc(Nc2cccc3c2C(=O)c2c(Nc4ccc(C)cc4C)cccc2C3=O)c(C)c1
inactive: dose: 100.0 mg/kg/injection, schedule: Q04DX002 (ip), vehicle: saline 97 % of control | dose: 200.0 mg/kg/injection, schedule: Q04DX002 (ip), vehicle: saline 117 % of control | dose: 400.0 mg/kg/injection, schedule: Q04DX002 (ip), vehicle: saline 100 % of control

Cc1ccc2[nH]c(=S)n(-c3cccc(C(F)(F)F)c3)c(=O)c2c1
inactive: [1] 96 % of control | [3] 104 % of control | [5] 100 % of control

Nc1ncnc(N)c1NC(=O)Cc1cccc([N+](=O)[O-])c1
inactive: dose: 12.5 mg/kg/injection, schedule: Q01DX001 (ip), vehicle: Klucel (hydroxypropylcellulose) (HPC) 101 % of control | dose: 25.0 mg/kg/injection, schedule: Q01DX001 (ip), vehicle: Klucel (hydroxypropylcellulose) (HPC) 110 % of control | dose: 50.0 mg/kg/injection, schedule: Q01DX001 (ip), vehicle: Klucel (hydroxypropylcellulose) (HPC) 96 % of control and 103 % of control

O=C1C=C(NNc2ccccc2)CCC1
inactive: dose: 75.0 mg/kg/injection, schedule: Q01DX001 (ip), vehicle: steriod suspending solution 92 % of control | dose: 150.0 mg/kg/injection, schedule: Q01DX001 (ip), vehicle: steriod suspending solution 95 % of control | dose: 300.0 mg/kg/injection, schedule: Q01DX001 (ip), vehicle: steriod suspending solution 92 % of control

CC(O)C[As](=O)(O)c1ccc(Cl)cc1 (configuration not stated)
inactive: dose: 25.0 mg/kg/injection, schedule: Q04DX003 (ip), vehicle: saline with Tween-80 94 % of control

O=C(NOCc1cc2c(cc1Cl)OCO2)c1ccc(S(=O)(=O)F)cc1
inactive: dose: 100.0 mg/kg/injection, schedule: Q04DX003 (ip), vehicle: saline sonified 95 % of control

O=[N+]([O-])c1ccc(C2CCCCC2)cc1
inactive: [13] 109 % of control | [14] 109 % of control | [15] 102 % of control

CC(=O)c1cc2ccccc2oc1=O
inactive: dose: 100.0 mg/kg/injection, schedule: Q01DX009 (ip), vehicle: gum acacia 117 % of control | dose: 200.0 mg/kg/injection, schedule: Q01DX009 (ip), vehicle: gum acacia 108 % of control | dose: 400.0 mg/kg/injection, schedule: Q01DX009 (ip), vehicle: gum acacia 107 % of control
